{"source": "the kinase profiling compilation of Christmann-Franck et al. (2016)", "test_in_all_cases": "KINOMEscan competition binding", "settings_in_all_cases": "compound 10.0 µM", "key": {"EPHB4 (human)": {"target": "EPHB4 (human) (UniProt P54760)"}, "PAK1 (human)": {"target": "PAK1 (human) (UniProt Q13153)"}, "ABL2 (human)": {"target": "ABL2 (human) (UniProt P42684)"}, "ADCK4 (human)": {"target": "ADCK4 (human) (UniProt Q96D53)", "sequence (Q96D53 whole entry, looked up)": "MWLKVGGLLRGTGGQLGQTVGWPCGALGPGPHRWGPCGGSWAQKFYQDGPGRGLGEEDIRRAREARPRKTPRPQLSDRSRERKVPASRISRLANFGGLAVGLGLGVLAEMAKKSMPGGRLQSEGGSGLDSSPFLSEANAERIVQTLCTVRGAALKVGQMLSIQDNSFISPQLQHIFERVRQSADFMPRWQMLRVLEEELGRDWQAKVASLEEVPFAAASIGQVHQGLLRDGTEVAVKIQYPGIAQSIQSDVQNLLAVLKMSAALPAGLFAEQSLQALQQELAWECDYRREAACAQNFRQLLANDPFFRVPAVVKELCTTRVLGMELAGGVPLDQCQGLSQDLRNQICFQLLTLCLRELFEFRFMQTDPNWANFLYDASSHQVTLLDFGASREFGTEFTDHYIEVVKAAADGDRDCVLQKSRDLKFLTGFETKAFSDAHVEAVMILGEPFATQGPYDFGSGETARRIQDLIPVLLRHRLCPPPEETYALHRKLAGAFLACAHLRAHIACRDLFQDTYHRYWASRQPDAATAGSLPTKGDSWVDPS"}, "ITK (human)": {"target": "ITK (human) (UniProt Q08881)"}, "CDK9 (human)": {"target": "CDK9 (human) (UniProt P50750)"}, "PIM2 (human)": {"target": "PIM2 (human) (UniProt Q9P1W9)"}, "EPHA2 (human)": {"target": "EPHA2 (human) (UniProt P29317)", "sequence (P29317 whole entry, looked up)": "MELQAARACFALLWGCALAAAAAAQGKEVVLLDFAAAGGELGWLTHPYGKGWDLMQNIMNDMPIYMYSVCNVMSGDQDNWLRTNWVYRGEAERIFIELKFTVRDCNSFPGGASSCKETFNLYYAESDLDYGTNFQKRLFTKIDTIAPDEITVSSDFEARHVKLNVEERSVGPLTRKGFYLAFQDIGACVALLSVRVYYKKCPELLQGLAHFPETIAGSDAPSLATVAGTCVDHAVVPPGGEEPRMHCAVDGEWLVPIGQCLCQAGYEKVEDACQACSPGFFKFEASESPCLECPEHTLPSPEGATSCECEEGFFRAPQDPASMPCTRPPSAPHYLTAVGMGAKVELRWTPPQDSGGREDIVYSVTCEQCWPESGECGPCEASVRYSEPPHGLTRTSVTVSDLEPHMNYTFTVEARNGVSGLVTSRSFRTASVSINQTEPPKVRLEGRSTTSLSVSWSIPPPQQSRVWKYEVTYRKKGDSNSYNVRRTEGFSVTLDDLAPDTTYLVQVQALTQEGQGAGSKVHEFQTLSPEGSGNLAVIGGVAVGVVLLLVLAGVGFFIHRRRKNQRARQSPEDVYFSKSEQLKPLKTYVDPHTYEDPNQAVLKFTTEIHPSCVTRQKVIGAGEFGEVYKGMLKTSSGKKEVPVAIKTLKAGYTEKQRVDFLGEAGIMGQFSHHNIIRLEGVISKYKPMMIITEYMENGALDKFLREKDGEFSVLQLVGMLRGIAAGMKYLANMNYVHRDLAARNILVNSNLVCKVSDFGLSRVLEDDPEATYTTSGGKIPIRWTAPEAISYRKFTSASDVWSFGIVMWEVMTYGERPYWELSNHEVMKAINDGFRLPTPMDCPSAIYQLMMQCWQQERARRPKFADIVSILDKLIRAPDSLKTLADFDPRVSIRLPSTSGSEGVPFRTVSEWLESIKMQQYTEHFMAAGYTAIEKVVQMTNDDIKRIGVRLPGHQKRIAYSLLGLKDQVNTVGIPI"}, "CDK17 (human)": {"target": "CDK17 (human) (UniProt Q00537)"}, "STK17B (human)": {"target": "STK17B (human) (UniProt O94768)"}, "CDKL1 (human)": {"target": "CDKL1 (human) (UniProt Q00532)", "sequence (Q00532 whole entry, looked up)": "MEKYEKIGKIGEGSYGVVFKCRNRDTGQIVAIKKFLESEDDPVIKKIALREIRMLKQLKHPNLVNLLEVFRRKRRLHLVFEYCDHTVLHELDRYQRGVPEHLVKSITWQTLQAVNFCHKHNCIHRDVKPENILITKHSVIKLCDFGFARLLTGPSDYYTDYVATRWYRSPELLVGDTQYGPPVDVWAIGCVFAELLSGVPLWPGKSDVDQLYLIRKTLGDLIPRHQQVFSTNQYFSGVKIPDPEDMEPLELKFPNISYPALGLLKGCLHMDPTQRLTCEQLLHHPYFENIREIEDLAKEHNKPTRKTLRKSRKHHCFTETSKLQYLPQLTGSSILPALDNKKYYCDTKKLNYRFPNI"}, "CDC42BPG (human)": {"target": "CDC42BPG (human) (UniProt Q6DT37)"}, "SGK3 (human)": {"target": "SGK3 (human) (UniProt Q96BR1)"}, "SRPK2 (human)": {"target": "SRPK2 (human) (UniProt P78362)", "sequence (P78362 whole entry, looked up)": "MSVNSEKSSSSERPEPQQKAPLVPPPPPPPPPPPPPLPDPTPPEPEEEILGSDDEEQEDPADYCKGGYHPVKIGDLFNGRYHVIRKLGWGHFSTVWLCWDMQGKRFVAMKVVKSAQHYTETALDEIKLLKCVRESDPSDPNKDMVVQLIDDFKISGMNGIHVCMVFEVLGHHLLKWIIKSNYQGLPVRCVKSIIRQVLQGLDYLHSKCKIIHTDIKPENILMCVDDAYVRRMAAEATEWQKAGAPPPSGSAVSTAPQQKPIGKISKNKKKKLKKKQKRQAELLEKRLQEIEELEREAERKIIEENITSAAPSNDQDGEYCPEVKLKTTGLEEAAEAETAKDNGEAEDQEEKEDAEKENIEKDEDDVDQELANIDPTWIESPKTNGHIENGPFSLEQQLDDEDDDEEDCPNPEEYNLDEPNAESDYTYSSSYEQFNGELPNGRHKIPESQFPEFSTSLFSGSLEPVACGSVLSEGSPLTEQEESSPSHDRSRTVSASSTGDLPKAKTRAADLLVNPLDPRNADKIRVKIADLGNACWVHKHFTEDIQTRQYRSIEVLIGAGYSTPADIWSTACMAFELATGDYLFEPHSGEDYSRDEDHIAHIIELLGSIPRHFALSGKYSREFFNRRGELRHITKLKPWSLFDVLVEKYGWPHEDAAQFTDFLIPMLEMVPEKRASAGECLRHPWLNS"}, "PRKACB (human)": {"target": "PRKACB (human) (UniProt P22694)"}, "SGK110 (human)": {"target": "SGK110 (human) (UniProt P0C264)"}, "CDK13 (human)": {"target": "CDK13 (human) (UniProt Q14004)"}, "KDR (human)": {"target": "KDR (human) (UniProt P35968)"}, "CDK8 (human)": {"target": "CDK8 (human) (UniProt P49336)", "sequence (P49336 whole entry, looked up)": "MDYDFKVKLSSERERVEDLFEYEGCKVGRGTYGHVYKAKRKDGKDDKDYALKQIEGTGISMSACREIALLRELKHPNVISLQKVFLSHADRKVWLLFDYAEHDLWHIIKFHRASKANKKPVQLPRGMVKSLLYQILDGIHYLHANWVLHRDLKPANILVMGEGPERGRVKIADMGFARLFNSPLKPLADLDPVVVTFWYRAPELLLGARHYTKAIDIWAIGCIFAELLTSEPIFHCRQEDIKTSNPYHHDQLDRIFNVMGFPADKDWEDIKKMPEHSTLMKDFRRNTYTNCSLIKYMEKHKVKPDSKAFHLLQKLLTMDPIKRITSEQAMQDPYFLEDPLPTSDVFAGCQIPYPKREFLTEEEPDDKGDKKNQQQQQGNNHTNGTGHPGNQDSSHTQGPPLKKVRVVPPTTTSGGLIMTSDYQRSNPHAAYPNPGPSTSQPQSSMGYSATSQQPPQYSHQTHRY"}, "PIM3 (human)": {"target": "PIM3 (human) (UniProt Q86V86)"}, "FGFR3 (human)": {"target": "FGFR3 (human) (UniProt P22607)"}, "TEC (human)": {"target": "TEC (human) (UniProt P42680)"}, "STK33 (human)": {"target": "STK33 (human) (UniProt Q9BYT3)"}, "PRKCI (human)": {"target": "PRKCI (human) (UniProt P41743)"}, "FES (human)": {"target": "FES (human) (UniProt P07332)"}, "CRK2 (P.falciparum)": {"target": "CRK2 (P.falciparum) (UniProt P61075)", "sequence (P61075 whole entry, looked up)": "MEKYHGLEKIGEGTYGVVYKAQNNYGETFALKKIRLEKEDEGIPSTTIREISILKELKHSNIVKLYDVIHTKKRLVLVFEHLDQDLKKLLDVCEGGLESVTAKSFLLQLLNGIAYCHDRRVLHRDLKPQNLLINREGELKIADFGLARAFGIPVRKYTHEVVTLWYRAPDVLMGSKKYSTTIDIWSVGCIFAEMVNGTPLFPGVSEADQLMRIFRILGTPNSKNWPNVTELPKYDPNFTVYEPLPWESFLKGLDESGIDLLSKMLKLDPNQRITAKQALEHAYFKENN"}, "LIMK1 (human)": {"target": "LIMK1 (human) (UniProt P53667)"}, "CDK18 (human)": {"target": "CDK18 (human) (UniProt Q07002)"}, "PDGFRB (human)": {"target": "PDGFRB (human) (UniProt P09619)"}, "MAP2K1 (human)": {"target": "MAP2K1 (human) (UniProt Q02750)", "sequence (Q02750 whole entry, looked up)": "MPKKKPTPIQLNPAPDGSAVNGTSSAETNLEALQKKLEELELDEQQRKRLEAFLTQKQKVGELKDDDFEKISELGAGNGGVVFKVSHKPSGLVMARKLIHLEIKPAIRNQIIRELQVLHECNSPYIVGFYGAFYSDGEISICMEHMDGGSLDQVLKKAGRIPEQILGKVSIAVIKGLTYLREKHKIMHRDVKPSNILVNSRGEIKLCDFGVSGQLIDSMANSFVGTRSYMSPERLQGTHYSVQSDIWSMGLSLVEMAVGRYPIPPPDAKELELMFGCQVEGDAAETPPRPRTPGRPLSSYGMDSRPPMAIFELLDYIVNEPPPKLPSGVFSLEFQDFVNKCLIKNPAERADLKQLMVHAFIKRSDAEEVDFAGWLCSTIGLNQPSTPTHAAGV"}, "[1]": {"tested_on": "FGFR3 (human), P22607 [G697C]"}, "EPHA4 (human)": {"target": "EPHA4 (human) (UniProt P54764)"}, "CSK (human)": {"target": "CSK (human) (UniProt P41240)"}, "NTRK2 (human)": {"target": "NTRK2 (human) (UniProt Q16620)"}, "STK3 (human)": {"target": "STK3 (human) (UniProt Q13188)"}, "IGF1R (human)": {"target": "IGF1R (human) (UniProt P08069)"}, "CPK1 (P.falciparum)": {"tested_on": "CPK1 (P.falciparum)"}, "EPHA1 (human)": {"target": "EPHA1 (human) (UniProt P21709)"}, "PLK4 (human)": {"target": "PLK4 (human) (UniProt O00444)", "sequence (O00444 whole entry, looked up)": "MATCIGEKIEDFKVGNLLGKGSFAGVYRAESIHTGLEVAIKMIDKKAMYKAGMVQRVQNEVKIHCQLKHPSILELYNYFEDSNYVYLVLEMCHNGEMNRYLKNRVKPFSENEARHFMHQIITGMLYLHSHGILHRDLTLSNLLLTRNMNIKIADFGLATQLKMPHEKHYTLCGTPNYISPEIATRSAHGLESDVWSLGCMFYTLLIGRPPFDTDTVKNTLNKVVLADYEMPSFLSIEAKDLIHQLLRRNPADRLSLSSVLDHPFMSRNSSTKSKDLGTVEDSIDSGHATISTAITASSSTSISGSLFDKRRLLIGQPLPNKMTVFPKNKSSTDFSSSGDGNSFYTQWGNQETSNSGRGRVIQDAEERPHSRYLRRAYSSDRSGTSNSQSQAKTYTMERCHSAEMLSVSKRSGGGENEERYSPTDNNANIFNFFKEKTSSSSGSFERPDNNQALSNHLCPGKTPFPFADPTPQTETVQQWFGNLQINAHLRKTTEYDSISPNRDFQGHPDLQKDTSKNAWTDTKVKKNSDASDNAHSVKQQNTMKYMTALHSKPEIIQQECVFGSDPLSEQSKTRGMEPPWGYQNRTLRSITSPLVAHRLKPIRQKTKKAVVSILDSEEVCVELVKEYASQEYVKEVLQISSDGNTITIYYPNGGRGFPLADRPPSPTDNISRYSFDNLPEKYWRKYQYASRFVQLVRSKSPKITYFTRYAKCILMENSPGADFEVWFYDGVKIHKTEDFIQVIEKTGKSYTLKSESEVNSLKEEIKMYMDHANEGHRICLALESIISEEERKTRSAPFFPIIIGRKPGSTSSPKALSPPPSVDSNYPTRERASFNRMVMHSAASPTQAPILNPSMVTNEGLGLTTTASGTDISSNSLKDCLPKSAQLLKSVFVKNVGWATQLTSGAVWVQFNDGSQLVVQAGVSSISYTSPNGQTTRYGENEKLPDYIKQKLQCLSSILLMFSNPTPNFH"}, "IKBKB (human)": {"target": "IKBKB (human) (UniProt O14920)"}, "BMPR2 (human)": {"target": "BMPR2 (human) (UniProt Q13873)"}}, "data": [{"compound": "CCc1nc(-c2cccc(C)c2)c(-c2ccnc(NC(=O)c3ccccc3)c2)s1", "values": [{"measurement": "kinase still bound, per cent of control", "setting": "EPHB4 (human)", "result": 53, "unit": "%"}, {"measurement": "kinase still bound, per cent of control", "setting": "PAK1 (human)", "result": 76, "unit": "%"}, {"measurement": "kinase still bound, per cent of control", "setting": "ABL2 (human)", "result": 47, "unit": "%"}, {"measurement": "kinase still bound, per cent of control", "setting": "ADCK4 (human)", "result": 2.2, "unit": "%"}, {"measurement": "kinase still bound, per cent of control", "setting": "ITK (human)", "result": 100, "unit": "%"}, {"measurement": "kinase still bound, per cent of control", "setting": "CDK9 (human)", "result": 95, "unit": "%"}, {"measurement": "kinase still bound, per cent of control", "setting": "PIM2 (human)", "result": 82, "unit": "%"}, {"measurement": "kinase still bound, per cent of control", "setting": "EPHA2 (human)", "result": 66, "unit": "%"}, {"measurement": "kinase still bound, per cent of control", "setting": "CDK17 (human)", "result": 99, "unit": "%"}, {"measurement": "kinase still bound, per cent of control", "setting": "STK17B (human)", "result": 91, "unit": "%"}, {"measurement": "kinase still bound, per cent of control", "setting": "CDKL1 (human)", "result": 100, "unit": "%"}, {"measurement": "kinase still bound, per cent of control", "setting": "CDC42BPG (human)", "result": 15, "unit": "%"}, {"measurement": "kinase still bound, per cent of control", "setting": "SGK3 (human)", "result": 100, "unit": "%"}, {"measurement": "kinase still bound, per cent of control", "setting": "SRPK2 (human)", "result": 73, "unit": "%"}, {"measurement": "kinase still bound, per cent of control", "setting": "PRKACB (human)", "result": 95, "unit": "%"}, {"measurement": "kinase still bound, per cent of control", "setting": "SGK110 (human)", "result": 100, "unit": "%"}, {"measurement": "kinase still bound, per cent of control", "setting": "CDK13 (human)", "result": 100, "unit": "%"}, {"measurement": "kinase still bound, per cent of control", "setting": "KDR (human)", "result": 38, "unit": "%"}, {"measurement": "kinase still bound, per cent of control", "setting": "CDK8 (human)", "result": 88, "unit": "%"}, {"measurement": "kinase still bound, per cent of control", "setting": "PIM3 (human)", "result": 86, "unit": "%"}, {"measurement": "kinase still bound, per cent of control", "setting": "FGFR3 (human)", "result": 86, "unit": "%"}, {"measurement": "kinase still bound, per cent of control", "setting": "TEC (human)", "result": 100, "unit": "%"}, {"measurement": "kinase still bound, per cent of control", "setting": "STK33 (human)", "result": 97, "unit": "%"}, {"measurement": "kinase still bound, per cent of control", "setting": "PRKCI (human)", "result": 100, "unit": "%"}, {"measurement": "kinase still bound, per cent of control", "setting": "FES (human)", "result": 97, "unit": "%"}, {"measurement": "kinase still bound, per cent of control", "setting": "CRK2 (P.falciparum)", "result": 100, "unit": "%"}, {"measurement": "kinase still bound, per cent of control", "setting": "LIMK1 (human)", "result": 90, "unit": "%"}, {"measurement": "kinase still bound, per cent of control", "setting": "CDK18 (human)", "result": 96, "unit": "%"}, {"measurement": "kinase still bound, per cent of control", "setting": "PDGFRB (human)", "result": 34, "unit": "%"}, {"measurement": "kinase still bound, per cent of control", "setting": "MAP2K1 (human)", "result": 86, "unit": "%"}, {"measurement": "kinase still bound, per cent of control", "setting": "[1]", "result": 93, "unit": "%"}, {"measurement": "kinase still bound, per cent of control", "setting": "EPHA4 (human)", "result": 94, "unit": "%"}, {"measurement": "kinase still bound, per cent of control", "setting": "CSK (human)", "result": 88, "unit": "%"}, {"measurement": "kinase still bound, per cent of control", "setting": "NTRK2 (human)", "result": 100, "unit": "%"}, {"measurement": "kinase still bound, per cent of control", "setting": "STK3 (human)", "result": 97, "unit": "%"}, {"measurement": "kinase still bound, per cent of control", "setting": "IGF1R (human)", "result": 100, "unit": "%"}, {"measurement": "kinase still bound, per cent of control", "setting": "CPK1 (P.falciparum)", "result": 22, "unit": "%"}, {"measurement": "kinase still bound, per cent of control", "setting": "EPHA1 (human)", "result": 56, "unit": "%"}, {"measurement": "kinase still bound, per cent of control", "setting": "PLK4 (human)", "result": 100, "unit": "%"}, {"measurement": "kinase still bound, per cent of control", "setting": "IKBKB (human)", "result": 100, "unit": "%"}, {"measurement": "kinase still bound, per cent of control", "setting": "BMPR2 (human)", "result": 90, "unit": "%"}]}]}
